From the supplement of paper PMC11061612

Assays:
Assay in all cases: combination Emax (second highest fraction inhibited in the dose matrix, 72 h); higher = more inhibition; extreme values may be limits of the assay
[1] = system: A3-KAW (B-Cell Non-Hodgkin's Lymphoma)
Summary of the method: (§1)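 Cell lines in DMEM/F12 or RPMI with 10% FBS were plated in 1536-well plates, held 24 hours at 37°C, 5% CO2, then given two-drug dose matrices for 72 hours (DMSO typically 0.2%). Viability was read by CellTiter-Glo 2.0 luminescence and scaled as inhibition from 0 (vehicle wells) to 1 (blank wells). Combination Emax is the second-highest inhibition in the matrix; Bliss excess is observed combination effect minus expected EA + EB − EA·EB, EA and EB being single-agent effects.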

A498 (Kidney Carcinoma) = system: A498 (Kidney Carcinoma)
Summary of the method: as §1

[2] = system: CAPAN-2 (Pancreatic Carcinoma)
Summary of the method: as §1

CAS-1 (Glioblastoma) = system: CAS-1 (Glioblastoma)
Summary of the method: as §1

[3] = system: HCC1954 (Breast Carcinoma)
Summary of the method: as §1

Hs-445 (Non-Cancerous) = system: Hs-445 (Non-Cancerous)
Summary of the method: as §1

SMILES | combination Emax [1] | combination Emax (A498 (Kidney Carcinoma)) | combination Emax [2] | combination Emax (CAS-1 (Glioblastoma)) | combination Emax [3] | combination Emax (Hs-445 (Non-Cancerous))
COc1nnc2ccc(N3CCC(c4ccc(OCCN5CCN(C)C(=O)[C@H]5C)cc4)CC3)nn12 [AZD5153] + Cn1cnc2c(F)c(Nc3ccc(Br)cc3Cl)c(C(=O)NOCCO)cc21 [Selumetinib] (first compound max 1 µM, 7x7, partner max 10 µM) | 1 | 0.867 | 0.452 | 0.599 | 0.263 | 0.555
NC1(C(=O)N[C@@H](CCO)c2ccc(Cl)cc2)CCN(c2ncnc3[nH]ccc23)CC1 [Capivasertib] + CCN(CCO)CCCOc1ccc2c(Nc3cc(CC(=O)Nc4cccc(F)c4)[nH]n3)ncnc2c1 [AZD2811] (first compound max 10 µM, 7x7, partner max 1 µM) | 0.674 | 0.586 | 0.219 | 0.635 | 0.87 | 0.678
COc1nnc2ccc(N3CCC(c4ccc(OCCN5CCN(C)C(=O)[C@H]5C)cc4)CC3)nn12 [AZD5153] + CC1(C)CCC(CN2CCN(c3ccc(C(=O)NS(=O)(=O)c4ccc(NCC5CCOCC5)c([N+](=O)[O-])c4)c(Oc4cnc5[nH]ccc5c4)c3)CC2)=C(c2ccc(Cl)cc2)C1 [Venetoclax] (first compound max 1 µM, 7x7, partner max 1 µM) | 1 | 0.439 | 0.299 | 0.622 | 0.152 | 0.724
CN(CCO)CC[C@H](CSc1ccccc1)Nc1ccc(S(=O)(=O)NC(=O)c2ccc(N3CCC([C@@H](O)c4ccccc4-c4ccc(Cl)cc4)CC3)cc2)cc1S(=O)(=O)C(F)(F)F [AZD4320] + Cc1cc2ncnn2cc1Nc1ncc2c(n1)n(C1CCOCC1)c(=O)n2C [AZD7648] (first compound max 1 µM, 7x7, partner max 10 µM) | 0.344 | 0.37 | 0.653 | 0.171 | 0.48 | 0.746
NC1(C(=O)N[C@@H](CCO)c2ccc(Cl)cc2)CCN(c2ncnc3[nH]ccc23)CC1 [Capivasertib] + Cn1cnc2c(F)c(Nc3ccc(Br)cc3Cl)c(C(=O)NOCCO)cc21 [Selumetinib] (first compound max 10 µM, 7x7, partner max 10 µM) | 0.698 | 0.799 | 0.504 | 0.682 | 0.805 | 0.623
Cc1c2c(nn1C)CSCc1cc(n(C)n1)CSc1cc(c3ccccc3c1)OCCCc1c(C(=O)O)n(C)c3c-2c(Cl)ccc13 [AZD5991] + CCN(CCO)CCCOc1ccc2c(Nc3cc(CC(=O)Nc4cccc(F)c4)[nH]n3)ncnc2c1 [AZD2811] (first compound max 1 µM, 7x7, partner max 1 µM) | 1 | 0.352 | 0.239 | 0.705 | 0.98 | 0.968
CN(C)CCCOc1ccc(-c2ccc3ncc4c(c3c2)n(C2CCOCC2)c(=O)n4C)cn1 [AZD0156] + CCN(CCO)CCCOc1ccc2c(Nc3cc(CC(=O)Nc4cccc(F)c4)[nH]n3)ncnc2c1 [AZD2811] (first compound max 1 µM, 7x7, partner max 1 µM) | 0.572 | 0.172 | 0.122 | 0.263 | 0.0882 | 0.325
Cc1cc2ncnn2cc1Nc1ncc2c(n1)n(C1CCOCC1)c(=O)n2C [AZD7648] + C=CCn1c(=O)c2cnc(Nc3ccc(N4CCN(C)CC4)cc3)nc2n1-c1cccc(C(C)(C)O)n1 [AZD1775] (first compound max 10 µM, partner max 1 µM) | 0.896 | 0.521 | 0.485 | 0.566 | 0.483 | 0.909
Cc1cc2ncnn2cc1Nc1ncc2c(n1)n(C1CCOCC1)c(=O)n2C [AZD7648] + CN(C)CCCOc1ccc(-c2ccc3ncc4c(c3c2)n(C2CCOCC2)c(=O)n4C)cn1 [AZD0156] (first compound max 10 µM, 7x7, partner max 1 µM) | 0.597 | 0.401 | 0.253 | 0.314 | 0.307 | 0.313
CN(CCO)CC[C@H](CSc1ccccc1)Nc1ccc(S(=O)(=O)NC(=O)c2ccc(N3CCC([C@@H](O)c4ccccc4-c4ccc(Cl)cc4)CC3)cc2)cc1S(=O)(=O)C(F)(F)F [AZD4320] + C[C@@H](Nc1cc(F)cc(F)c1)c1cc(C(=O)N(C)C)cc2c(=O)cc(N3CCOCC3)oc12 [AZD8186] (first compound max 1 µM, 7x7, partner max 3 µM) | 0.761 | 0.911 | 0.678 | 0.623 | 0.546 | 0.97
